In PubChem BioAssay AID330 (DTP/NCI, 2004):
“And” between values parts separate entries of the source, which are not always exact repeats. Equal values may be shown once. Toxic doses and inconclusive results are not listed. Rule for the calls: active = survival T/C of 150% or more; inactive = T/C below 125% in these data.

Tested on: P388 leukemia ip, CD2F1 mice, survival T/C
Test: NCI In Vivo Anticancer Drug Screen. Data for tumor model P388 Leukemia (intraperitoneal) in CD2F1 (CDF1) mice
Details: endpoint: median survival time, higher = longer survival
Outline: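 Mice carrying the transplanted tumor received test compound or vehicle. Survival was recorded in each group, and the value is the treated-group measurement divided by that of the vehicle-treated control group.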

[1] = dose: 100.0 mg/kg/injection, schedule: Q01DX009 (ip), vehicle: saline with Tween-80
[2] = dose: 200.0 mg/kg/injection, schedule: Q01DX009 (ip), vehicle: saline with Tween-80
[3] = dose: 400.0 mg/kg/injection, schedule: Q01DX009 (ip), vehicle: saline with Tween-80
[4] = dose: 50.0 mg/kg/injection, schedule: Q01DX009 (ip), vehicle: saline with Tween-80
[5] = dose: 12.5 mg/kg/injection, schedule: Q01DX009 (ip), vehicle: saline with Tween-80
[6] = dose: 25.0 mg/kg/injection, schedule: Q01DX009 (ip), vehicle: saline with Tween-80
[7] = dose: 15.0 mg/kg/injection, schedule: Q01DX005 (ip), vehicle: Klucel (hydroxypropylcellulose) (HPC)
[8] = dose: 30.0 mg/kg/injection, schedule: Q01DX005 (ip), vehicle: Klucel (hydroxypropylcellulose) (HPC)
[9] = dose: 60.0 mg/kg/injection, schedule: Q01DX005 (ip), vehicle: Klucel (hydroxypropylcellulose) (HPC)
[10] = dose: 120.0 mg/kg/injection, schedule: Q01DX005 (ip), vehicle: Klucel (hydroxypropylcellulose) (HPC)
[11] = dose: 60.0 mg/kg/injection, schedule: Q01DX005 (ip), vehicle: saline with Tween-80
[12] = dose: 120.0 mg/kg/injection, schedule: Q01DX005 (ip), vehicle: saline with Tween-80

Measured: T/C

Cc1nc(N=C(N)N)nc2ccc3ccccc3c12
inactive: dose: 3.13 mg/kg/injection, schedule: Q01DX009 (ip), vehicle: Klucel (hydroxypropylcellulose) (HPC) 95 % of control | dose: 6.25 mg/kg/injection, schedule: Q01DX009 (ip), vehicle: Klucel (hydroxypropylcellulose) (HPC) 104 % of control | dose: 12.5 mg/kg/injection, schedule: Q01DX009 (ip), vehicle: Klucel (hydroxypropylcellulose) (HPC) 93 % of control

O=C1CCCCCCCCCCC1Br (configuration not stated)
inactive: [1] 100 % of control | [2] 99 % of control | [3] 105 % of control

C=C(OC(=O)CN(C)C)c1ccccc1
inactive: dose: 100.0 mg/kg/injection, schedule: Q04DX003 (ip), vehicle: saline with Tween-80 98 % of control | dose: 200.0 mg/kg/injection, schedule: Q04DX003 (ip), vehicle: saline with Tween-80 100 % of control | dose: 400.0 mg/kg/injection, schedule: Q04DX003 (ip), vehicle: saline with Tween-80 94 % of control

COc1cc2c(c(OC)c1OC)-c1ccc(=O)c(OC)cc1C(N(C)C(C)=O)CC2 (configuration not stated)
inactive: dose: 1.25 mg/kg/injection, schedule: Q01DX009 (ip), vehicle: Klucel (hydroxypropylcellulose) (HPC) 100 % of control | dose: 2.5 mg/kg/injection, schedule: Q01DX009 (ip), vehicle: Klucel (hydroxypropylcellulose) (HPC) 100 % of control | dose: 5.0 mg/kg/injection, schedule: Q01DX009 (ip), vehicle: Klucel (hydroxypropylcellulose) (HPC) 113 % of control | dose: 10.0 mg/kg/injection, schedule: Q01DX009 (ip), vehicle: Klucel (hydroxypropylcellulose) (HPC) 103 % of control | dose: 20.0 mg/kg/injection, schedule: Q01DX009 (ip), vehicle: Klucel (hydroxypropylcellulose) (HPC) 106 % of control

CN1C(=O)C(O)N=C(c2ccccc2)c2cc(Cl)ccc21 (configuration not stated)
inactive: [4] 101 % of control | [1] 105 % of control | [2] 117 % of control

CSC(=S)N/N=C/c1ccccn1
inactive: [5] 100 % of control | [6] 104 % of control and 109 % of control | [4] 113 % of control

Cc1ccc(O)c(N)c1
inactive: [4] 94 % of control | dose: 50.0 mg/kg/injection, schedule: Q01DX009 (ip), vehicle: saline 98 % of control | [1] 100 % of control | dose: 100.0 mg/kg/injection, schedule: Q01DX009 (ip), vehicle: saline 104 % of control and 119 % of control | [2] 105 % of control | dose: 200.0 mg/kg/injection, schedule: Q01DX009 (ip), vehicle: saline 108 % of control and 95 % of control | [3] 121 % of control

CCCCCCCCCc1cc(=O)[nH]c(=S)[nH]1
inactive: [7] 99 % of control | [8] 102 % of control | [9] 90 % of control and 93 % of control | [10] 100 % of control

COC(=O)C1C2CC3c4[nH]c5cc(OC)c(Br)cc5c4CCN3CC2CC(OC(=O)c2cc(OC)c(OC)c(OC)c2)C1OC (configuration not stated)
inactive: dose: 3.75 mg/kg/injection, schedule: Q01DX005 (ip), vehicle: Klucel (hydroxypropylcellulose) (HPC) 104 % of control | dose: 7.5 mg/kg/injection, schedule: Q01DX005 (ip), vehicle: Klucel (hydroxypropylcellulose) (HPC) 94 % of control | [7] 104 % of control | [8] 108 % of control

CSc1ccc(N2C(N)=NC(N)=NC2(C)C)cc1
inactive: dose: 6.25 mg/kg/injection, schedule: Q01DX005 (ip), vehicle: saline with Tween-80 100 % of control | dose: 12.5 mg/kg/injection, schedule: Q01DX005 (ip), vehicle: saline with Tween-80 102 % of control | dose: 25.0 mg/kg/injection, schedule: Q01DX005 (ip), vehicle: saline with Tween-80 100 % of control

C=C(C)C1CC=C(/C=N/O)CC1 (configuration not stated)
inactive: [1] 100 % of control | [3] 91 % of control

CC1(C)CN=C(NN=C(/C=C/c2ccc(C(F)(F)F)cc2)/C=C/c2ccc(C(F)(F)F)cc2)NC1
inactive: [9] 98 % of control | [10] 98 % of control

COc1ccc(C2(c3ccc(OC)cc3)N=NC3(C)CC32)cc1 (configuration not stated)
inactive: dose: 100.0 mg/kg/injection, schedule: Q01DX001 (ip), vehicle: saline with Tween-80 92 % of control | dose: 200.0 mg/kg/injection, schedule: Q01DX001 (ip), vehicle: saline with Tween-80 89 % of control | dose: 400.0 mg/kg/injection, schedule: Q01DX001 (ip), vehicle: saline with Tween-80 86 % of control

[Cl][Pd][Cl].[NH-]C(C(=O)OCc1ccccc1)c1ccccc1.[NH-]C(C(=O)OCc1ccccc1)c1ccccc1 (configuration not stated)
inactive: dose: 6.25 mg/kg/injection, schedule: Q04DX003 (ip), vehicle: saline 100 % of control | dose: 12.5 mg/kg/injection, schedule: Q04DX003 (ip), vehicle: saline 100 % of control | dose: 25.0 mg/kg/injection, schedule: Q04DX003 (ip), vehicle: saline 97 % of control | dose: 100.0 mg/kg/injection, schedule: Q04DX003 (ip), vehicle: saline 108 % of control

COc1cc(OCc2ccccc2)c(O)cc1-c1coc2cc(OCc3ccccc3)ccc2c1=O
inactive: dose: 100.0 mg/kg/injection, schedule: Q01DX001 (ip), vehicle: Klucel (hydroxypropylcellulose) (HPC) 96 % of control | dose: 200.0 mg/kg/injection, schedule: Q01DX001 (ip), vehicle: Klucel (hydroxypropylcellulose) (HPC) 100 % of control | dose: 400.0 mg/kg/injection, schedule: Q01DX001 (ip), vehicle: Klucel (hydroxypropylcellulose) (HPC) 94 % of control

CCOP1(=O)OC(c2ccccc2)C(C)N1C (configuration not stated)
inactive: dose: 50.0 mg/kg/injection, schedule: Q01DX005 (ip), vehicle: Klucel (hydroxypropylcellulose) (HPC) 100 % of control | dose: 100.0 mg/kg/injection, schedule: Q01DX005 (ip), vehicle: Klucel (hydroxypropylcellulose) (HPC) 104 % of control | dose: 200.0 mg/kg/injection, schedule: Q01DX005 (ip), vehicle: Klucel (hydroxypropylcellulose) (HPC) 107 % of control

CCN(CC)c1ccc(C(=C2C=CC(=[N+](CC)CC)C=C2)c2ccc(N(CC)CC)cc2)cc1
inactive: dose: 50.0 mg/kg/injection, schedule: Q01DX005 (ip), vehicle: saline with Tween-80 113 % of control and 120 % of control

CCOC(=O)C1=C(Nc2ccc(F)cc2)C(=O)N(C(C)(C)C)C1
inactive: [11] 100 % of control | [12] 106 % of control | dose: 240.0 mg/kg/injection, schedule: Q01DX005 (ip), vehicle: saline with Tween-80 93 % of control

Cc1ccc(SC2=C(Sc3ccc(C)cc3)C(=O)c3ccccc3C2=O)cc1
inactive: [6] 102 % of control and 88 % of control | [4] 116 % of control and 96 % of control | [1] 99 % of control and 123 % of control

CCCCN(CCCC)C(=O)/C(O)=C(\O)C(=O)N(CCCC)CCCC
inactive: dose: 25.0 mg/kg/injection, schedule: Q01DX005 (ip), vehicle: saline 90 % of control | dose: 50.0 mg/kg/injection, schedule: Q01DX005 (ip), vehicle: saline 96 % of control | dose: 100.0 mg/kg/injection, schedule: Q01DX005 (ip), vehicle: saline 92 % of control | dose: 200.0 mg/kg/injection, schedule: Q01DX005 (ip), vehicle: saline 113 % of control

O=C1OC(=O)C2C1C1c3ccccc3C2(O)c2ccccc21 (configuration not stated)
inactive: dose: 30.0 mg/kg/injection, schedule: Q01DX005 (ip), vehicle: saline with Tween-80 106 % of control | [11] 100 % of control | [12] 94 % of control

CCOC(=O)/C=C(\Cl)C(=O)OCC
inactive: dose: 1.56 mg/kg/injection, schedule: Q01DX009 (ip), vehicle: saline with Tween-80 95 % of control | dose: 1.56 mg/kg/injection, schedule: Q01DX009 (ip), vehicle: saline 101 % of control | dose: 3.13 mg/kg/injection, schedule: Q01DX009 (ip), vehicle: saline with Tween-80 104 % of control and 110 % of control | dose: 3.13 mg/kg/injection, schedule: Q01DX009 (ip), vehicle: saline 103 % of control | dose: 6.25 mg/kg/injection, schedule: Q01DX009 (ip), vehicle: saline with Tween-80 111 % of control and 123 % of control | dose: 6.25 mg/kg/injection, schedule: Q01DX009 (ip), vehicle: saline 112 % of control | [5] 111 % of control | dose: 12.5 mg/kg/injection, schedule: Q01DX009 (ip), vehicle: saline 118 % of control

CC1C(c2ccccc2)=Nn2c(=O)n(-c3ccccc3)c(=O)n21 (configuration not stated)
inactive: dose: 25.0 mg/kg/injection, schedule: Q01DX009 (ip), vehicle: other 90 % of control | dose: 50.0 mg/kg/injection, schedule: Q01DX009 (ip), vehicle: other 91 % of control | dose: 100.0 mg/kg/injection, schedule: Q01DX009 (ip), vehicle: other 91 % of control | dose: 200.0 mg/kg/injection, schedule: Q01DX009 (ip), vehicle: other 89 % of control | dose: 400.0 mg/kg/injection, schedule: Q01DX009 (ip), vehicle: other 86 % of control
